How the values were obtained:
C2C12 cells = assay: Western blot analysis of C2C12 myoblasts (TGF-β1 stimulation, halofuginone treatment); format: cell-based, mouse
Procedure: Specifically, C2C12 cells (CRL-1772) were purchased from the American Type Culture Collection (ATCC) and maintained in DMEM medium (Welgene) containing 10% (v/v) fetal bovine serum (FBS; Gibco) and 1% penicillin-streptomycin (P/S; Gibco) at 37° C. under 5% CO2 conditions. The C2C12 cells were seeded in 6-well plates at a density of 3×10^5 cells per well and allowed to adhere for 24 hours. Subsequently, the medium was replaced with serum-free medium after 24 hours, followed by stimulation with 5 ng/ml rhTGF-β1 (recombinant human TGF-β1; R&D Systems). After stimulation, the cells were treated with various concentrations (0 [control], or 1, 2.5, 5 [low dose], 10 [high dose], 20, 50, 100 ng/ml) of halofuginone (Sigma) in serum-free medium for 24 hours.
Specifically, the lumbar spinal cord or knee joint of the mouse of Example 6 was separated and immediately frozen at −80° C. Each lumbar spinal cord or knee joint was then homogenized and chemically treated to obtain cells. The chemically treated cells, the C2C12 cells of Example 1 or the fibroblasts of Example 5 were dissolved in a RIPA buffer (Thermo, MA, USA) with a protease inhibitor and a phosphatase inhibitor (Roche, IN, USA) and incubated on ice for 30 minutes. After centrifugation of the lysate at 13,000 rpm at 4° C. for 20 min, insoluble substances were removed. Protein concentrations were measured by BCA analysis (Pierce Biotechnology). Equal volumes of cell lysate were loaded onto SDS-PAGE gels for electrophoresis, and transferred onto nitrocellulose membranes (Amersham Protran 0.2 um NC, Amersham Pharmacia Biotech, Piscataway, NJ, USA). The membranes were then blocked with 5% (w/v) skimmilk in 1×TBST for 1 h at room temperature. After blocking, anti-RB-actin antibody (1:5000; Santa Cruz, cat #sc47778), anti-Smad2 antibody (1:1000; Cell Signaling, cat #5339), anti-p-Smad2 antibody (1:1000; Cell Signaling, cat #3108), anti-TGF-β1 antibody (1:1000; Santa Cruz, cat #sc130348), anti-α-SMA antibody (1:10000; abcam cat #ab7817), anti-MyoD antibody (1:1000; cat #sc377460), anti-collagen|antibody (1:1000; abcam cat #ab21286), anti-cleaved caspase-3 antibody (1:1000; Cell Signaling, cat #9661), anti-bax antibody (1:500; Santa Cruz, cat #sc493), anti-bcl2 antibody (1:1000; Novus Biologics, cat #NB100-56098), anti-ChAT antibody (1:1000; Millipore, cat #AB144) were treated and incubated overnight at 4° C. Subsequently, membranes were washed several times with 1×TBST and incubated with horseradish peroxidase-conjugated secondary antibodies (anti-mouse, rabbit or goat, 1:5000; GE Healthcare) in blocking buffer for 1 h at room temperature (RT). The membranes were then washed, briefly incubated with the SuperSignal West Pico Plus Chemical Substructure (Pierce Biotechnology) according to the manufacturer's procedure, and quantified with an image analyzer (Amersham Pharmacia Biotech, Piscataway, NJ, USA). β-actin was used as an internal control group. The concentration measurement of protein intensity was quantified using Image J (National Institutes of Health).
Specifically, after treating C2C12 cells with TGF-β1 for 24 hours as in Example 1, real-time qRT-PCR was performed in the same manner as in Example 11 to confirm TGF-β1, 2 and 3, α-SMA and MyoD mRNA expression (FIG. 2a), and Western blot analysis was performed in the same manner as in Example 12 to confirm autocrine expression of TGF-β1 and MyoD protein and α-SMA (FIG. 2b).
Specifically, C2C12 cells were treated with halofuginone after TGF-β1 stimulation or no stimulation in the same manner as described in Example 2, and cell viability analysis was performed through CCK-8 analysis (FIGS. 3a and 3b), and Western blot analysis was performed in the same manner as described in Example 12 to confirm autocrine expression of p-Smad2, Smad2, TGF-β1, MyoD, collagen I protein and α-SMA (FIG. 3c). […]

[1] = test system: G93A mutant SOD1 transgenic mice; assay: Range of motion (ROM) of the knee joint in ALS animal model; format: in vivo, mouse; conditions: 120 days old; compared to DMSO Non-TG group (DMSO TG significantly reduced)
Procedure: As a control group, non-transgenic mice were injected intraperitoneally (i.p.) with vehicle (DMSO) in the same manner for the same period of time. Specifically, anatomical indicators were used to determine the knee extension angle. Manual knee joint ROM was measured at the end of disease age (120 days) using Random Two-line, a 2D angle analysis system. The mice of Example 6 were anesthetized with 1% isoflurane inhalation, followed by placing them on an acrylic plate and shaving the skin on their hind legs. The femur was fixed to the plate and a constant force extension moment was applied to the knee joint per mouse. Subsequently, markers were attached to greater trochanter, epicondyle of the knee, and lateral malleolus to obtain markers on the imaging. The angle between the axis of the femur (the greater trochanter to the lateral joint space of the knee) and the fibula (the lateral joint space of the knee to the lateral malleolus) was measured as the knee extension ROM. Sixteen mice in each group were analyzed, and the knees of non-transgenic mice injected with DMSO in the group on day 120 were used as controls. Specifically, halofuginone was administered to G93A mutant SOD1 mice in the same manner as described in Example 6, and ROM measurement of the knee joint was performed in the same manner as described in Example 10 (FIG. 8a). […]

[2] = halofuginone 5 ng/ml and 10 ng/ml, 24 h after TGF-β1 stimulation (FIG. 3c)

## O=C(C[C@H]1NCCC[C@@H]1O)Cn1cnc2cc(Br)c(Cl)cc2c1=O (racemic) [halofuginone]
C2C12 cells; [2]
  decrease in MyoD protein level by TGF-β1 stimulation: significantly recovered
  increase in TGF-β1 protein level by TGF-β1 stimulation: significantly reduced
  increase in collagen I protein level by TGF-β1 stimulation: significantly reduced
  increase in p-Smad2/Smad2 ratio by TGF-β1 stimulation: significantly reduced
  increase in α-SMA protein level by TGF-β1 stimulation: significantly reduced
C2C12 cells; low or high concentration halofuginone, 24 h after TGF-β1 stimulation (FIG. 4b)
  TGF-β1, α-SMA, MyoD and collagen I protein expression, compared with the mRNA result: the same
[1]
  range of motion (ROM) of the knee joint: not changed

— US20240390377A1, “COMPOSITION FOR THE PREVENTION OR TREATMENT OF NEURODEGENERATIVE OR MOTOR NEURON DISEASES COMPRISING HALOFUGINONE AS AN ACTIVE INGREDIENT” (CURAMYS CO., LTD., priority 2022, published 2024)
